Legend:
[1] = target: T1, human LHCG receptor (Homo sapiens, UniProt P22888); assay: intracellular cAMP accumulation, agonism at LHCGR stably expressed in HEK EM 293 cells; assay type: cell-based; settings: full activation of LHCGR by LH set at 100%
T1 construct: expressed in transfected cells
Procedure: (§1) With reference to Table 1, exemplary disclosed compounds were evaluated against human TSH receptor and human LHCG receptor that were stably expressed in HEK 293 EM cells as previously described by Libert et al. (Biochem. Biophys. Res. Commun. 1989, 165, 1250-1255); and by Schulz et al. (Mol. Endocrinol. 1999, 13, 181-190). Cell surface expression of TSH receptor and LHCG receptor were determined via FACS analysis (Kleinau, G.; Jäschke, H.; Neumann, S.; Lättig, S.; Paschke, R.; Krause, G. J. Biol. Chem. 2004, 279, 51590-51600).
Following aspiration of the medium after incubation with compounds, cells were lysed using lysis buffer 1 of the cAMP Biotrak Enzymeimmunoassay (EIA) System (Amersham Biosciences). The cAMP content of the cell lysate was determined using the manufacturer's protocol. […] The potency (EC50) was obtained from dose response curves (0-100 μM compound) by data analysis with GraphPad Prism 4 for Windows. […] The data are presented as mean±SEM of two independent experiments, each performed in duplicate.
(§2) Transiently transfected cells were cultured for 48 hours before the cAMP assay. HEK-EM 293 cells stably expressing TSHR, LHCGR or FSHR were seeded into 24-well plates with a density of 2.2×10^5 cells/well 24 hours before the cAMP assay. After removal of growth medium, cells were incubated for 1 hour in HBSS (Cellgro) with 10 mM HEPES (Cellgro) containing 1 mM 3-isobutyl-1-methylxanthine (IBMX) (Sigma) and the ligand of interest in a humidified 5% CO2 incubator at 37° C. The intracellular cAMP content was determined with the cAMP Biotrak Enzymeimmunoassay (EIA) System (GE Healthcare). Data were analyzed using GraphPad Prism 4 for Windows. Receptor expression was measured as described in Jaschke et al., J Biol Chem 281:9841-9844.

[2] = target: T2, human TSH receptor (Homo sapiens, UniProt P16473); assay: intracellular cAMP accumulation, agonism at TSHR stably expressed in HEK EM 293 cells; assay type: cell-based; settings: cAMP
T2 construct: expressed in transfected cells
T2 sequence (P16473 21-764): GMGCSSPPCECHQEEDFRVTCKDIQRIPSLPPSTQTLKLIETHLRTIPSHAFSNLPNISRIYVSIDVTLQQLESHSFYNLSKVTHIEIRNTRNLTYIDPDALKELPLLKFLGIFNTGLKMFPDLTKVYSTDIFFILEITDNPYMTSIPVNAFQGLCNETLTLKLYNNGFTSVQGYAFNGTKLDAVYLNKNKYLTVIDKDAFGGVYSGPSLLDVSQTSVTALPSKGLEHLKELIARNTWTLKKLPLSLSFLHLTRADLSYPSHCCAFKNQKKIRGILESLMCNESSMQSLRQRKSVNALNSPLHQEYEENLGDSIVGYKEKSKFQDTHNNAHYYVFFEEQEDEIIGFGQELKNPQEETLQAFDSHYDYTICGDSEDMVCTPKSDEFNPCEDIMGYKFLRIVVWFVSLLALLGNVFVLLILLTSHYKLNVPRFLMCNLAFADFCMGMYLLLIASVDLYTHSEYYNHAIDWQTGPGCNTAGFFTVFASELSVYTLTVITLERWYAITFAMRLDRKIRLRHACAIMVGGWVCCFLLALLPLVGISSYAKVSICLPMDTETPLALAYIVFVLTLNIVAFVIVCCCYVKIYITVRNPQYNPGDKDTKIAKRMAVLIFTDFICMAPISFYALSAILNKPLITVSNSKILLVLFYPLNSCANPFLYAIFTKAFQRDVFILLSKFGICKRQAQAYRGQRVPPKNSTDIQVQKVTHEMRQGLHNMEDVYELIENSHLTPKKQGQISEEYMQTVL
Procedure: as §1, with “51590-51600). Agonism of compounds 3-20 were determined via measurement of intracellular cyclic AMP accumulation. […] For example, […] certain compounds disclosed herein exerted no discernible effect on the FSH receptor.” for “51590-51600).”
Cells were cultured for 48 h in 24-well plates before incubation for 1 h in serum-free DMEM containing 1 mM 3-isobutyl-1-methylxanthine (IBMX) (SIGMA) and bovine TSH (1.8 μM) (SIGMA) or human LH (1000 ng/ml) (Dr. A. Parlow, NIDDK National Hormone and Pituitary Program) or compounds 3-19 (0-100 μM) in a humidified 5% CO2 incubator. Following aspiration of the medium after incubation with compounds, cells were lysed using lysis buffer 1 of the cAMP Biotrak Enzymeimmunoassay (EIA) System (Amersham Biosciences). The cAMP content of the cell lysate was determined using the manufacturer's protocol. The efficacy of receptor activation by small molecule modulators is expressed as % of maximum response of LHCG receptor or TSH receptor to LH or TSH, respectively. The potency (EC50) was obtained from dose response curves (0-100 μM compound) by data analysis with GraphPad Prism 4 for Windows. With reference to FIG. 1, intracellular cAMP production was determined in response to 100 μM of each compound and is expressed as % of maximum response of TSHR/LHCGR to TSH (100 mU/ml)/LH (1000 ng/ml). The data are presented as mean±SEM of two independent experiments, each performed in duplicate.
as §2

[3] = target: TSHR (Homo sapiens, UniProt P16473); assay: competition with 125I-labeled TSH for binding to TSHR
Sequence of TSHR (P16473 21-764): as above

[4] = system: TSHR mutant M9; assay: cAMP production in HEK-EM 293 cells transiently expressing TSHR mutant M9; assay type: cell-based, human; settings: 30 μM compound
Procedure: HEK-EM 293 cells were grown in Dulbecco's modified Eagle's Medium (DMEM) supplemented with 10% fetal bovine serum, 100 units/ml penicillin and 10 μg/ml streptomycin (Life Technologies Inc.) at 37° C. in a humidified 5% CO2 incubator. Cells were transiently transfected with wild type TSHR and mutant receptors in 24-well plates (7.5×10^4 cells per well) with 0.4 μg DNA/well using FuGENE™ 6 reagent (Roche) according to the manufacturer's protocol.
The M9 mutant is described in Jaschke et al., J Biol Chem 281:9841-9844. The Y7.42A mutant was introduced into hTSHR-pcDNA3.1 via the QuickChange XL Site-Directed Mutagenesis kit (Stratagene). The construct was verified by sequencing (MWG Biotech).
as §2, with “After removal of growth medium, cells were incubated for 1 hour in HBSS (Cellgro) with 10 mM HEPES (Cellgro) containing 1 mM 3-isobutyl-1-methylxanthine (IBMX) (Sigma) and the ligand of interest in a humidified 5% CO2 incubator at 37° C.” left out

T1 sequence (P22888 27-699): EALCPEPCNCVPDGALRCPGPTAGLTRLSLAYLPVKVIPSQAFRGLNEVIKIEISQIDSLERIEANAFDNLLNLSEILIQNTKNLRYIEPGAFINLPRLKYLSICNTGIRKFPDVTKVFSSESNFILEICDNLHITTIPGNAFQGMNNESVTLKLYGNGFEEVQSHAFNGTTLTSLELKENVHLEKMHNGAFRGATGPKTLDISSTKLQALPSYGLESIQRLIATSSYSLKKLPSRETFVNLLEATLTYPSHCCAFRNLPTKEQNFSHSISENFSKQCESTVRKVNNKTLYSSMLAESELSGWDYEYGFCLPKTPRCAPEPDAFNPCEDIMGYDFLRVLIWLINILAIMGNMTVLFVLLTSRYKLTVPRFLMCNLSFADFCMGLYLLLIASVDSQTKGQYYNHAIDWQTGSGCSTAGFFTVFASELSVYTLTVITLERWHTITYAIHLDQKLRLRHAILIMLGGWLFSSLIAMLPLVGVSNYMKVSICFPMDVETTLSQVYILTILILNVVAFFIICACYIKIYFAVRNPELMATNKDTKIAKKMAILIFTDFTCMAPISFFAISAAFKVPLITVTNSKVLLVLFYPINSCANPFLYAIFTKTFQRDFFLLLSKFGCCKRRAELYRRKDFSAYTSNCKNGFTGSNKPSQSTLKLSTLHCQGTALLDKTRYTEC

- activity at LHCGR compared to full activation by LH [1]: 17.25±2.25%
- agonist activity at TSHR [2]: no agonist activity
- competition with 125I-labeled TSH for binding to TSHR [3]: does not compete
Structure (SMILES): COC/C=C/c1ccc(-c2nc(SC)nc3sc(C(=O)NC(C)(C)C)c(N)c23)cc1 [Compound 52]
- cAMP production, fold over TSHR basal activity, M9 [4]: 13.2±1.7 fold

— patent US20090203716A1, “Pyrimidine low molecular weight ligands for modulating hormone receptors” (The Government of the United States of America as …, priority 2006, published 2009)
